Source: publication PMC8539749 (Viruses, 2021)
Values after ≈ are worked out from the molar mass of the structure shown. “Also recorded” adds a separate entry of the source. Like-named read-outs stand apart in the source and are kept apart here. Positions of bridges follow the written chain, without caps; N, C: chain ends. Residues, ends and D or L forms follow the SMILES beside them.

Legend:
SFTSV [1] = details: cited from earlier work
SFTSV [2] = experiment: microbe, parasite or virus in culture; format: cell-based, SFTSV HB29 strain; details: for IC50: Severe fever with thrombocytopenia syndrome virus
SFTSV [3] = format: cell-based, SFTSV HB29 strain
SFTSV [4] = format: cell-based, SFTSV HB29 strain; remark: listed apart in the source
SFTSV [5] = format: cell-based, SFTSV HB29 strain; remark: listed apart in the source
SFTSV Gc glycoprotein = details: cited from earlier work

Which results are given for `NC(=O)c1nc(F)c[nH]c1=O` [Favipiravir]?
anti-SFTSV activity in vitro and in vivo (SFTSV [1]): exhibit in vitro and in vivo activity against SFTSV; broad-spectrum antiviral effects (SFTSV [1]): broad-spectrum antiviral effects against various RNA viruses, including SFTSV; IC50 (SFTSV [2]; Huh-7, read-out: Favipiravir IC50, alone): 1.25 ± 0.101 µg/mL (≈ 7.94 µM); IC50 (SFTSV [2]; Huh-7, read-out: Favipiravir IC50, with HKU-P1 62.5 μg/mL): 0.979 ± 0.194 µg/mL (≈ 6.23 µM); IC50 (SFTSV [2]; Huh-7, read-out: Favipiravir IC50, with HKU-P1 125 μg/mL): 0.864 ± 0.132 µg/mL (≈ 5.5 µM); IC50 (SFTSV [2]; Huh-7, read-out: Favipiravir IC50, with HKU-P1 250 μg/mL): 0.805 ± 0.105 µg/mL (≈ 5.12 µM)

For `N=C(N)NCCC[C@@H]1NC(=O)[C@@H](NC(=O)[C@@H](N)CCCCN)CCCCNC(=O)[C@H](CO)NC(=O)CNC(=O)[C@H](Cc2ccccc2)NC(=O)CNC1=O` [HKU-P1] (H-KKRGFGS; lactam 2-C), which “viral load reduction, post-infection group” value (SFTSV [3]) is on record?
The value was “no significant viral load reduction”.

What about the “viral load reduction, pre-infection group” value (SFTSV [3]) of the same compound?
Its value is “no significant viral load reduction”.

What about the “combination effect (in words)” value (SFTSV [2]) of the same compound?
Its value is “synergistic antiviral effects in vitro; also recorded: consistently synergistic with favipiravir at different concentrations”.

And the “anti-SFTSV activity (in words)” value (SFTSV [4])?
The value was “best anti-SFTSV activity; also recorded: displayed anti-SFTSV effects”.

And the “dose dependence of viral load reduction” value (SFTSV [4])?
The value was “reduced SFTSV viral load in a dose-dependent manner”.

And the “reduction in SFTSV viral RNA load” value (SFTSV [4])?
The value was > 50%.

And the “SFTSV-NP expression (immunofluorescence)” value (SFTSV [5])?
Its value is “markedly reduced”.

What does the source list for `Oc1c(Cl)cc(Cl)c(Cl)c1Cc1c(O)c(Cl)cc(Cl)c1Cl` [hexachlorophene]?
anti-SFTSV activity (SFTSV [1]): inhibited SFTSV replication at low micromolar concentrations; likely target (SFTSV Gc glycoprotein): likely targets the SFTSV Gc glycoprotein
